# Reference: ChEMBL document CHEMBL1201862, “PubChem BioAssay data set” (2004)
# Active and inactive are the calls of the source.
# Assays:
# [1] = target: T1, Heat shock factor protein 1 (Mus musculus, UniProt P38532); assay: inhibition of MG132-induced HSE-luciferase signal, confirmation, cell-based, NIH3T3, luminescence, dose retest (AID 2382); assay type: functional;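 further: NIH3T3 fibroblasts with HSF1-driven luciferase reporter stressed by proteasome inhibitor MG132; luminescence from HSF1-driven luciferase expression after 8 hours of MG132 stress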
# T1 sequence (P38532 whole entry): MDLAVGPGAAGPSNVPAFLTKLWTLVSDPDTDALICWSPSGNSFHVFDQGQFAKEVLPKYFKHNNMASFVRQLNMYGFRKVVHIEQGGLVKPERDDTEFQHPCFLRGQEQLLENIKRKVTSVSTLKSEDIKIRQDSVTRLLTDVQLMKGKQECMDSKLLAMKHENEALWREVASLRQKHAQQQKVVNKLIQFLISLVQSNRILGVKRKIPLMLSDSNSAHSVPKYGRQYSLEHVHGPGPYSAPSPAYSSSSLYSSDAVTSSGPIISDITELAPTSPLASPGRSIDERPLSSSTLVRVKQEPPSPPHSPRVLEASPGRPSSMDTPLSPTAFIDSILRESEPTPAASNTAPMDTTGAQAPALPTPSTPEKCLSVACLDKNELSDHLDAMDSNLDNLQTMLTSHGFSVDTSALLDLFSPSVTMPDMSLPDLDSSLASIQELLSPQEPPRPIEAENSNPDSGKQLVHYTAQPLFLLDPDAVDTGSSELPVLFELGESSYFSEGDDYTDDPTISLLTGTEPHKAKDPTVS
# [2] = HEp-2 cell cytotoxicity, dose response, cytotoxicity control for RSV inhibitor project, HTS (AID 2410); assay type: functional; details: human respiratory syncytial virus
# [3] = inhibitors of intracellular T. cruzi replication, confirmation, NIH3T3 host cells, beta-gal luminescence (AID 2044); assay type: functional, cell-based;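 further: intracellular parasites grown in NIH/3T3 mouse fibroblasts as host cells; luminescent beta-galactosidase reporter signal from transgenic T. cruzi replicating inside host cells; inhibitors lower the luminescence signal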
# [4] = target: FAD-linked sulfhydryl oxidase ALR (Homo sapiens, UniProt P55789); assay: inhibitors of human ALR sulfhydryl oxidase, dose response, biochemical, H2O2 detection, luminescence, cherry-pick (AID 493248)
# Sequence of FAD-linked sulfhydryl oxidase ALR (P55789 whole entry): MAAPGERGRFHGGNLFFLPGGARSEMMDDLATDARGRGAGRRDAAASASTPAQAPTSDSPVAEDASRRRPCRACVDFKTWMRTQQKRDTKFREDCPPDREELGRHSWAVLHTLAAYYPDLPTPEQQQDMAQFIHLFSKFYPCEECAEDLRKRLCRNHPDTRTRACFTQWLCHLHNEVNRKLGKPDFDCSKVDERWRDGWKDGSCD
# [5] = cytotoxicity toward NIH3T3 fibroblasts, dose response, counter-screen, cell-based, ATP luminescence, mouse fibroblasts (AID 2010); assay type: functional;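 further: cells exposed to compound for about 90 hours before reading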
# [6] = cytotoxicity toward DRD oncogenic fibroblasts, dose response, cell-based, non-viral oncogenic, luminescence (AID 1934); assay type: functional; details: Homo sapiens
# BJ [7] = assay: cytotoxicity toward BJ-TERT fibroblasts, dose response, cell-based, RAS-independent, luminescence (AID 1933); assay type: functional; details: Homo sapiens
# BJ [8] = assay: cells; assay type: functional, cell-based; details: Homo sapiens
# BJ [9] = assay: cytotoxicity toward BJ-TERT-LT-ST fibroblasts, dose response, cell-based, RAS-independent, luminescence (AID 1935); assay type: functional; details: Homo sapiens;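 further: BJ fibroblasts immortalized with TERT plus LT and ST oncogenes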
# [10] = inhibitors of firefly luciferase expression or activity, dose response, H4 neuroglioma cells, luminescence (AID 1990); assay type: functional, cell-based
# Streptococcus = assay: Group A Streptococcus viability loss, dose response, counter-screen for streptokinase expression inhibitor project, luminescence, BacTiterGlo (AID 1915); assay type: functional, organism-based;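 further: potency for reduction of bacterial viability or growth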
# [11] = tested on: Streptococcus sp. 'group A'; assay: growth inhibition of control SK(-) GAS strain, dose response, counter-screen for streptokinase expression inhibitor project, luminescence, kanamycin, BacTiterGlo, confirmation (AID 1900); assay type: functional, organism-based
# [12] = inhibitors of SNCA 5'UTR-driven reporter translation, confirmation, H4 neuroglioma cells, luminescence (AID 1988); assay type: functional, cell-based
# Cytochrome P450 1A2 = target: T2, Cytochrome P450 1A2 (Homo sapiens, UniProt P05177);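 further: PubChem cytochrome P450 panel assay, CYP1A2 panel member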
# T2 sequence (P05177 whole entry): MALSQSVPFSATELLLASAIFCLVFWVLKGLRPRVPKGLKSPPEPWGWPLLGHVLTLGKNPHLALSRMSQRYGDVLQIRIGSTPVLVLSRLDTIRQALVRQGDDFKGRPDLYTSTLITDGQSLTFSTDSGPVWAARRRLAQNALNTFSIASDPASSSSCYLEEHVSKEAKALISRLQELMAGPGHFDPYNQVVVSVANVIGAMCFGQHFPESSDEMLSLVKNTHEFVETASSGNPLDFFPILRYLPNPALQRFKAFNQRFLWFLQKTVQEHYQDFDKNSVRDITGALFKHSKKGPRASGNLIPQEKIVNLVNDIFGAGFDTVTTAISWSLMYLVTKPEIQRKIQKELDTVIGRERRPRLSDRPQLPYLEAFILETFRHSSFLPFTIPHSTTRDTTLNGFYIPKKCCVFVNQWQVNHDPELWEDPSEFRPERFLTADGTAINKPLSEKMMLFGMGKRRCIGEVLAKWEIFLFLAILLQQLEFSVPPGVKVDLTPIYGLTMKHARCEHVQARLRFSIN
# [13] = Luminescence Cell-Based Dose Response HTS to Identify Inhibitors of 5'UTR Stem-Loop Driven Prion Protein mRNA Translation in H4 Neuroglioblastoma Cells. [Related pubchem assays: 1827 (Project Summary), 1813 (Primary HTS)]; assay type: functional
# Streptokinase A = target: T3, Streptokinase A (Streptococcus pyogenes serotype M1, UniProt P10520); assay: S. pyogenes streptokinase expression inhibitors, potency, dose response, plasminogen activation absorbance, OD405 (AID 1914); assay type: functional, Streptococcus pyogenes M1 GAS;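 further: secreted streptokinase activity via plasminogen activation per viability signal from cell pellet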
# T3 sequence (P10520 whole entry): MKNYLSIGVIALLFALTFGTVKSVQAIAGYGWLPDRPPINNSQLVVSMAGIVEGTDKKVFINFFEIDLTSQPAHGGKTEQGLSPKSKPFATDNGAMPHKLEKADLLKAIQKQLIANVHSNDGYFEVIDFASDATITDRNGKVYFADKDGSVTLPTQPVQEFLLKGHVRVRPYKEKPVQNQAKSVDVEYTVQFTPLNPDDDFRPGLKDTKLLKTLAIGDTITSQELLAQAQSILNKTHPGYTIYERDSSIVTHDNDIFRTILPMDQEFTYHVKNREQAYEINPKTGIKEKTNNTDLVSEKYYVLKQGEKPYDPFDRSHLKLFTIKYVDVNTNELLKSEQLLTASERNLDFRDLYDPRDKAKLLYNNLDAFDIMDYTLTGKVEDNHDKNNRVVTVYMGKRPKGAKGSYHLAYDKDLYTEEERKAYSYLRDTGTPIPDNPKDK
# H4 = assay: Luminescence Cell-Based Dose Response HTS to Identify Activators of 5'UTR Stem-Loop Driven Prion Protein mRNA Translation in H4 Neuroglioblastoma Cells. [Related pubchem assays: 1829 (Project Summary), 1814 (Primary HTS)]; assay type: functional; details: Homo sapiens
# [14] = Luminescence Cell-Based Dose Response HTS to Identify Activators of Luciferase Translation or Activity in H4 […] Cells. [Related pubchem assays: 1829 (Project Summary), 1814 (Primary HTS)]; assay type: functional
# [15] = Luminescence Cell-Based Dose Confirmation HTS to Identify Activators of 5'UTR Stem-Loop Driven Alpha-Synuclein mRNA Translation in H4 Neuroglioblastoma Cells. [Related pubchem assays: 1829 (Project Summary), 1814 (Primary HTS)]; assay type: functional
# Large T antigen = Large T antigen (Simian virus 40, UniProt P03070); assay type: functional, Betapolyomavirus macacae;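 further: Confirmatory-stage PubChem screen for compounds that inhibit SV40 T antigen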
# Sequence of Large T antigen (P03070 whole entry): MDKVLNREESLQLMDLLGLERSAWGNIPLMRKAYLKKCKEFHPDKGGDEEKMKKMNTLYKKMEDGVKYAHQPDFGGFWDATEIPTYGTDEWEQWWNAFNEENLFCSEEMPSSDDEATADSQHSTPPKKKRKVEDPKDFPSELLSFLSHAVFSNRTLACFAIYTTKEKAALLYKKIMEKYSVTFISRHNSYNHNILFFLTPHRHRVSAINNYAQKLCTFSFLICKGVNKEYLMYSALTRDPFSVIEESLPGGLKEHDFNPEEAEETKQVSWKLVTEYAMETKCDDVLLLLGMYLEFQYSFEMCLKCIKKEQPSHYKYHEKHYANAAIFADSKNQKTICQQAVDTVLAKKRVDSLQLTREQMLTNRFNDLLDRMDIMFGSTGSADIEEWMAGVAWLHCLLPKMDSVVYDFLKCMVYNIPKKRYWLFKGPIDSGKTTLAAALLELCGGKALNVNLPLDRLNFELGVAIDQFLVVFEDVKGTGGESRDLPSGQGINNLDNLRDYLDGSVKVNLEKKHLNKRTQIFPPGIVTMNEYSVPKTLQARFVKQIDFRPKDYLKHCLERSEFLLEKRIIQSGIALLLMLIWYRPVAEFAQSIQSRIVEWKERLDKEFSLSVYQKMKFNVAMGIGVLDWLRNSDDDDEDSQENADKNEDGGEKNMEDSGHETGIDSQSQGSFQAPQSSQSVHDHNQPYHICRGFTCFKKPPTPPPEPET
# Cytochrome P450 2D6 = Cytochrome P450 2D6 (Homo sapiens, UniProt P10635);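 further: CYP2D6 member of a cytochrome P450 panel assay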
# Sequence of Cytochrome P450 2D6 (P10635 whole entry): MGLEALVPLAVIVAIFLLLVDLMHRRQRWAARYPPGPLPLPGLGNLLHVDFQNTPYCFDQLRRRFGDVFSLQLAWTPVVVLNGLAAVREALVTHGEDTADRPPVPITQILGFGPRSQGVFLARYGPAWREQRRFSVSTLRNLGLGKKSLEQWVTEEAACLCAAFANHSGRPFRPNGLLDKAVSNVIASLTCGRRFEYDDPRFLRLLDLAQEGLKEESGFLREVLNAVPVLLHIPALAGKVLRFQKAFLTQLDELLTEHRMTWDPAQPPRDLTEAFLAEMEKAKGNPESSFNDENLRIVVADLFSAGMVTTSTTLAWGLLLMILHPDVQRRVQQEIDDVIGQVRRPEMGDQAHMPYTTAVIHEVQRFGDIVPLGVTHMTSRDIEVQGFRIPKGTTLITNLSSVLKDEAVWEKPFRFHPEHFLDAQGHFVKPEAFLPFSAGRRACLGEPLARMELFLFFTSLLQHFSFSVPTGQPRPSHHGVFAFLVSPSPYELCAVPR
# Cytochrome P450 2C19 = Cytochrome P450 2C19 (Homo sapiens, UniProt P33261); assay: Cytochrome panel assay with activity outcomes. Panel member name: p450-cyp2c19 Compounds with AC50 equal or less than 10 uM are considered active; assay type: functional; details: read-out: AC50
# Sequence of Cytochrome P450 2C19 (P33261 whole entry): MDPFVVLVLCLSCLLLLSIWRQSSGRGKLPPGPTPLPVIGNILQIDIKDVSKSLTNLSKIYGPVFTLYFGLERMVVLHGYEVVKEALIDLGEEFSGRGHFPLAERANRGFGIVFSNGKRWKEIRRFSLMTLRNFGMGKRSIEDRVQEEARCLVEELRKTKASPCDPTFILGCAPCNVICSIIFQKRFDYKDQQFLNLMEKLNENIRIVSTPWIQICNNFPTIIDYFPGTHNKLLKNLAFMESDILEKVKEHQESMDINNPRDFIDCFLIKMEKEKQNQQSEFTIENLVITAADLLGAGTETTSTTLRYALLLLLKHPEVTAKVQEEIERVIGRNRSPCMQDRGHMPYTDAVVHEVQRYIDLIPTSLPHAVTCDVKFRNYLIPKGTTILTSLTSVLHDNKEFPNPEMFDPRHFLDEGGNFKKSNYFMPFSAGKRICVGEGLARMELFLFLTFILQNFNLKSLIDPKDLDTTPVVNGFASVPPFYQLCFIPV
smiles,measurement,setting,value
Cn1cc(CCNC(=O)CC2C(=O)NCCN2Cc2cccc(Oc3ccccc3)c2)cn1 (stereo not given),EC50,[1],> 195 µM (not active)
CC(=O)N1c2ccc(S(=O)(=O)N3c4ccccc4CC3C)cc2CC1C (stereo not given),CC50,[2],15.1 µM (active)
Cc1ccc(CN2CC(C(=O)Nc3ccc(C)cn3)CC2=O)cc1 (stereo not given),EC50,[1],> 195 µM (not active)
COc1ccc(NCc2ccc(OC)c(Cn3ccnc3)c2)c(OC)c1,EC50,[3],0.588 µM (active)
same,AC50,[4],1.76 µM (active)
same,EC50,[5],> 60 µM (not active)
COc1cccc(CNc2ncc(C(=O)Nc3cc(OC)c(OC)c(OC)c3)c(C)n2)c1,EC50,[6],19.6 µM (inconclusive)
same,EC50,BJ [7],> 150 µM (not active)
same,EC50,BJ [8],46.7 µM (active)
same,EC50,BJ [9],17.9 µM (inconclusive)
Cc1ccccc1OCC(=O)NC(=S)Nc1ccc(Br)c(C)n1,EC50,[10],25.1 µM (active)
same,EC50,Streptococcus,> 150 µM (not active)
same,EC50,[11],> 150 µM (not active)
same,EC50,[12],14.2 µM (active)
same,AC50,Cytochrome P450 1A2,3.16 µM (inconclusive)
same,EC50,[13],21 µM (active)
same,EC50,Streptokinase A,57.1 µM (active)
Cc1cc(C(=O)N2CCCC(Nc3ccccc3)C2)c2ccc(F)cc2n1 (stereo not given),AC50,[4],2.24 µM (active)
CC(C)C(=O)Nc1ccc2c(c1)nc1n2CCSC1,AC50,[4],0.245 µM (active)
CN(C)c1ccc(-c2nnc(S)n2-c2ccccc2)cc1,AC50,[4],64.6 µM (active)
Cc1cc(C(=O)CSc2ccccc2)cc(C)c1O,CC50,[2],49.6 µM (active)
O=Cc1c(N2CCN(c3ccccc3)CC2)nc2ccccn2c1=O,EC50,H4,> 120 µM (not active)
same,EC50,[14],17.8 µM (active)
same,EC50,[15],> 120 µM (not active)
same,AC50,[4],3.72 µM (active)
O=C(NN=C1CCCCCCCCCCC1)c1ccccc1F,EC50,[1],> 195 µM (not active)
CN(C)c1ccc(CNS(=O)(=O)c2ccc3c(c2)NC(=O)CS3)cc1,AC50,[4],7.37 µM (active)
COc1cc(SC)ccc1C(=O)N1CCN(c2ccc(O)cc2)CC1,IC50,Large T antigen,5.95 µM (active)
same,AC50,[4],0.68 µM (active)
Cc1cc2nc(SCCOC(=O)Nc3cccc(Cl)c3)nc(C)c2cc1C,CC50,[2],32.2 µM (active)
CNc1nnc(-c2cccc(N(C)C)c2)s1,AC50,[4],0.046 µM (active)
C=CCn1c(SCc2c(C)noc2C)nc2sc3c(c2c1=O)CCC(C)C3 (stereo not given),EC50,[6],9.03 µM (active)
same,EC50,BJ [7],23.8 µM (active)
same,EC50,BJ [8],4.12 µM (inconclusive)
same,EC50,BJ [9],> 150 µM (inconclusive)
O=C(O)c1ccccc1C(=O)Nc1ccc(Nc2ccc([N+](=O)[O-])cc2[N+](=O)[O-])cc1,AC50,[4],3.88 µM (active)
COc1ccc(NC(S)=Nc2ccc(Oc3ccccc3)cc2)cc1,EC50,[1],> 195 µM (not active)
COCCCn1c2nc3ccccc3nc2c2c(=O)n(Cc3ccc(Cl)cc3)cnc21,CC50,[2],> 50 µM (active)
Cc1cc(C)n(CCc2nc(-c3ccco3)cs2)n1,IC50,Large T antigen,65.6 µM (active)
same,AC50,[4],4.56 µM (active)
COc1ccc(CCNC(=O)CN2CCN(Cc3ccccc3F)C2=O)cc1OC,EC50,[1],> 195 µM (not active)
NC1=NC(c2c[nH]nc2-c2cccc(F)c2)n2c(nc3ccccc32)N1 (stereo not given),EC50,[1],27.5 µM (active)
S=C(Sc1ccc(Cl)cc1)Sc1ccc(Cl)cc1,EC50,[6],9.25 µM (active)
same,EC50,BJ [7],3.4 µM (inconclusive)
same,EC50,BJ [8],> 150 µM (inconclusive)
same,EC50,BJ [9],13.1 µM (inconclusive)
Cc1ccc(-c2nnc(SCC(=O)N/N=C/c3c(C)nn(-c4ccccc4)c3C)n2-c2ccc(C)cc2)cc1,CC50,[2],20.5 µM (active)
COc1ccc(/C=N/NC(=O)c2cc(-c3cccn3C)[nH]n2)cc1OC,EC50,[1],> 195 µM (not active)
COc1cc(/C=N\Nc2nc3ccccc3[nH]2)cc(OC)c1OC,AC50,Cytochrome P450 2D6,17.8 µM (inconclusive)
same,AC50,Cytochrome P450 2C19,17.8 µM (inconclusive)
same,AC50,[4],0.997 µM (active)
Cc1ccc(-c2nnc(SCC(=O)N/N=C/c3c(C)nn(-c4ccccc4)c3C)n2-c2ccccc2)cc1,CC50,[2],17.2 µM (active)
COc1ccc(Nc2cc(C)c3ccc(O)cc3n2)cc1,CC50,[2],11.7 µM (active)
O=C(O)Cc1cc(I)c(Oc2ccc(O)c(I)c2)c(I)c1 [TIRATRICOL],CC50,[2],13 µM (active)
same,AC50,Cytochrome P450 1A2,12.6 µM (inconclusive)
